Converted amounts (≈) assume the structure as drawn. Read-outs that look alike come from different tables or passages of the source.
How the values were obtained:
786-O = test: Cell proliferation (Alamar Blue) assay, 786-O; format: cell-based, human
Procedure, shortened: (§1)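 Alamar Blue fluorescence (540 nm excitation, 590 nm emission, 1.5 h reagent incubation) measured viability after 24 h compound exposure at 37° C./5% CO2. Compounds spanned 10-0.0005 μM in 3-fold steps with 1% final DMSO, on cells pre-seeded 16-24 h at 5000/well. IC50 values were derived by variable-slope dose-response fitting.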

SJSA-1 = test: Cell proliferation (Alamar Blue) assay, SJSA-1; format: cell-based, human
Procedure, shortened: as §1

A431 = test: Cell proliferation (Alamar Blue) assay, A431; format: cell-based, human; settings: Homo sapiens, A-431, 24 h
Procedure, shortened: as §1

[1] = Kinetic solubility (PBS, pH 7.4); format: physicochemical; settings: aqueous buffer, kinetic from dmso stock
[2] = CD-1 Mouse Whole Blood Stability Assay; format: in vitro ADME; settings: incubation at 37° C.
[3] = Mouse plasma protein % unbound (ultracentrifuge method); format: in vitro ADME; settings: for Mouse Plasma Protein % Unbound (Ultracentrifuge method, 4 h at 37° C.): Table B-6; for fraction unbound at 4 h: mouse, plasma
[4] = Equilibrium solubility at different pHs and with SBECD; format: physicochemical; settings: thermodynamic from solid
[5] = CD-1, mouse, plasma, 2 μM
[6] = Rat hepatocyte metabolic stability; format: in vitro ADME
[7] = Human hepatocyte metabolic stability; format: in vitro ADME
Human blood stability = format: in vitro ADME
in vitro = settings: CD-1, mouse, plasma
[8] = Homo sapiens, 786-0, 24 h, Table B-3, 786-O cells
[9] = Homo sapiens, SJSA-1, 24 h, Table B-3, head prints SJSB-1, 24 h, read-out: IC50 (μM) SJSB-1
[10] = aqueous buffer, pH 3.0, read-out: Eq. solubility pH 3.0
[11] = aqueous buffer, pH 3.0 PBS buffer, read-out: Eq. solubility pH 3.0 PBS buffer
[12] = aqueous with cosolvent or surfactant or cyclodextrin, 20% SBECD (sulfobutyl ether cyclodextrin), read-out: Eq. solubility 20% SBECD

| SMILES | IC50 (786-O; [8]) [µM] | IC50 (SJSA-1; [9]) [µM] | IC50 (A431; Table B-3, A431 cells) [µM] | CD-1 Mouse Whole Blood Stability % Remaining ([2]; Table B-6, 0 min) [%] | CD-1 Mouse Whole Blood Stability % Remaining ([2]; Table B-6, 30 min) [%] | CD-1 Mouse Whole Blood Stability % Remaining ([2]; Table B-6, 60 min) [%] | Mouse Plasma Protein % Unbound (Ultracentrifuge method, 4 h at 37° C.) [3] | solubility [4, 11] [µg/mL] | solubility [4, 12] [µg/mL] | further results |
| --- | --- | --- | --- | --- | --- | --- | --- | --- | --- | --- |
| C#CC(=O)N1[C@@H](CCCC)Cc2c([nH]c3c(F)cc(F)cc23)[C@@H]1c1cccnc1 [Compound B-30] | 0.03 | 0.052 | > 10 | 100.0 | 1.9 | 0.5 | Not stable | 490 (≈ 1250 µM) | 240 (≈ 610 µM) | solubility kinetic ([1]; Table B-7): < 1 µM; solubility [4, 10]: 700 µg/mL (≈ 1780 µM) |
| C[C@H]1Cc2c([nH]c3ccccc23)[C@](C)(c2ccc(F)cc2)N1C(=O)CCl [Compound C-38] |  |  |  |  |  |  |  |  |  | IC50 (786-O; Table C-3, 786-O cells, 24 h): 0.437 µM; IC50 (SJSA-1; Table C-3, SJSA-1 cells, 24 h, read-out: IC50 (μM) SJSA-1): 0.332 µM; IC50 (A431; Table C-3, A431 cells): 2.95 µM; CD-1 Mouse Whole Blood Stability % Remaining ([2]; Table C-4, 0 min): 100.0%; CD-1 Mouse Whole Blood Stability % Remaining ([2]; Table C-4, 30 min): 74.4%; CD-1 Mouse Whole Blood Stability % Remaining ([2]; Table C-4, 60 min): 61.0%; fraction unbound at 4 h ([3]; Table C-4, 4 h at 37° C.): 0.105 |
| CC(=O)CC(c1ccccc1)c1c(O)c2ccccc2oc1=O (stereo not drawn) [Warfarin, reference compound] |  |  |  |  |  |  |  |  |  | % Remaining (t = 4 hr at 37 C.) [5]: 101.2% |
| C#CC(=O)N1[C@@H](CCCC)Cc2c([nH]c3c(F)cc(F)cc23)[C@@H]1c1ccccn1 [Compound B-31] | 0.009 | 0.011 | 6.6 | 100.0 | 2.1 | 0.2 | Not stable | 4 (≈ 10.2 µM) | 47 (≈ 119 µM) | solubility kinetic ([1]; Table B-4): 3 µM (≈ 1.18 µg/mL); rat hepatocytes extr. Ratio [6]: 0.94; rat hepatocytes % met @ 180 min ([6]; 180 min): 100%; half-life ([6]; rat hepatocytes, read-out: rat hepatocytes T1/2): 16 min; hepatocyte CLint ([6]; rat hepatocytes, read-out: rat hepatocytes h Clintr (μL/min/10^6 cells)): 174 µL/min/1e6 cells; human hepatocytes extr. Ratio [7]: 0.93; human hepatocytes % met @ 180 min ([7]; 180 min): 97%; half-life ([7]; human hepatocytes, read-out: human hepatocytes T1/2): 28 min; hepatocyte CLint ([7]; human hepatocytes, read-out: human hepatocytes h Clintr (μL/min/10^6 cells)): 99 µL/min/1e6 cells; human blood stability % remaining (Human blood stability; 15 min): 9.7%_15; human blood stability % remaining (Human blood stability; 30 min): 0%_30; human blood stability % remaining (Human blood stability; 45 min): 0%_45; human blood stability % remaining (Human blood stability; 60 min): 0%_60; human blood stability % remaining (Human blood stability; 120 min): 0%_120; solubility [4, 10]: 15 µg/mL (≈ 38.1 µM) |
| C#CC(=O)N1[C@@H](CCCC)Cc2c([nH]c3c(F)cc(F)cc23)[C@@H]1c1ccnn1C [Compound B-34] | 0.041 | 0.074 | 7.6 | 100.0 | 9.4 | 1.1 | Not stable | < 1 | > 1010 | solubility kinetic ([1]; Table B-7): 11 µM (≈ 4.36 µg/mL) |
| C#CC(=O)N1[C@@H](CCCC)Cc2c([nH]c3c(F)cc(F)cc23)[C@@H]1C12CC(N)(C1)C2.Cl [Compound B-22] | 0.031 | 0.047 | 5.3 | 100.0 | 70.3 | 55.0 |  |  |  | fraction unbound at 4 h ([3]; Table B-6, 4 h at 37° C.): 0.037 |
| C#CC(=O)N1[C@@H](CCCC)Cc2c([nH]c3c(F)cc(F)cc23)[C@@H]1c1ccc(N2CCN(C)CC2)c(F)c1 [Compound B-53] | 0.029 | 0.051 | > 10 |  |  |  |  |  |  | % Bound [5]: 91.7%; % Remaining (t = 4 hr at 37 C.) [5]: 22.0%; fraction unbound at 2 μM (in vitro): 0.083 |

Source: patent US20220227765A1, “PYRIDO-INDOLE ANALOGUES AS GPX4 INHIBITORS” (Ferro Therapeutics, Inc., priority 2019, published 2022)
